Assays:
Assay in all cases: relative viability (nuclei count vs DMSO), 5 days (fraction); higher = more cells survive
Dinaciclib + Lapatinib = compound: CCc1cnn2c(NCc3ccc[n+]([O-])c3)cc(N3CCCC[C@H]3CCO)nc12 [Dinaciclib] + CS(=O)(=O)CCNCc1ccc(-c2ccc3ncnc(Nc4ccc(OCc5cccc(F)c5)c(Cl)c4)c3c2)o1 [Lapatinib] (partner 2 µM)
How it was run: (§1)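 For relative viability, nuclei counts in treated wells were divided by those in vehicle wells. Lung cancer cell lines had been pin-tool dosed in 1536-well plates the day after seeding and cultured for 5 days, then fixed and stained in one step (final 0.05% Triton X-100, 1% formaldehyde, 1 ug/ml Hoechst) and imaged at 4×. Doses were one drug alone or a fixed anchor-drug dose plus five library-drug doses (not always all listed) in √10 steps, and values are duplicate-plate medians.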

Dinaciclib + Pictilisib = compound: CCc1cnn2c(NCc3ccc[n+]([O-])c3)cc(N3CCCC[C@H]3CCO)nc12 [Dinaciclib] + CS(=O)(=O)N1CCN(Cc2cc3nc(-c4cccc5[nH]ncc45)nc(N4CCOCC4)c3s2)CC1 [Pictilisib] (partner 1 µM)
How it was run: as §1

Dinaciclib + Luminespib = compound: CCc1cnn2c(NCc3ccc[n+]([O-])c3)cc(N3CCCC[C@H]3CCO)nc12 [Dinaciclib] + CCNC(=O)c1noc(-c2cc(C(C)C)c(O)cc2O)c1-c1ccc(CN2CCOCC2)cc1 [Luminespib] (partner 0.01 µM)
How it was run: as §1

Dinaciclib + Palbociclib = compound: CCc1cnn2c(NCc3ccc[n+]([O-])c3)cc(N3CCCC[C@H]3CCO)nc12 [Dinaciclib] + CC(=O)c1c(C)c2cnc(Nc3ccc(N4CCNCC4)cn3)nc2n(C2CCCC2)c1=O [Palbociclib] (partner 0.5 µM)
How it was run: as §1

Dinaciclib + Trametinib = compound: CCc1cnn2c(NCc3ccc[n+]([O-])c3)cc(N3CCCC[C@H]3CCO)nc12 [Dinaciclib] + CC(=O)Nc1cccc(-n2c(=O)n(C3CC3)c(=O)c3c(Nc4ccc(I)cc4F)n(C)c(=O)c(C)c32)c1 [Trametinib] (partner 0.02 µM)
How it was run: as §1

Row | Cell Line | relative viability (Dinaciclib + Lapatinib; first compound 0.009487 µM) | relative viability (Dinaciclib + Lapatinib; first compound 0.03 µM) | relative viability (Dinaciclib + Lapatinib; first compound 0.09487 µM) | relative viability (Dinaciclib + Lapatinib; first compound 0.3 µM) | relative viability (Dinaciclib + Pictilisib; first compound 0.009487 µM) | relative viability (Dinaciclib + Pictilisib; first compound 0.03 µM) | relative viability (Dinaciclib + Pictilisib; first compound 0.09487 µM) | relative viability (Dinaciclib + Pictilisib; first compound 0.3 µM) | relative viability (Dinaciclib + Luminespib; first compound 0.009487 µM) | relative viability (Dinaciclib + Luminespib; first compound 0.03 µM) | relative viability (Dinaciclib + Luminespib; first compound 0.09487 µM) | relative viability (Dinaciclib + Luminespib; first compound 0.3 µM) | relative viability (Dinaciclib + Palbociclib; first compound 0.009487 µM) | relative viability (Dinaciclib + Palbociclib; first compound 0.03 µM) | relative viability (Dinaciclib + Palbociclib; first compound 0.09487 µM) | relative viability (Dinaciclib + Palbociclib; first compound 0.3 µM) | relative viability (Dinaciclib + Trametinib; first compound 0.009487 µM) | relative viability (Dinaciclib + Trametinib; first compound 0.03 µM) | relative viability (Dinaciclib + Trametinib; first compound 0.09487 µM) | relative viability (Dinaciclib + Trametinib; first compound 0.3 µM)
1 | NCI-H358 | 0.341 | 0.216 | 0.196 | 0.188 | 0.272 | 0.185 | 0.174 | 0.176 | 0.276 | 0.0982 | 0.0922 | 0.0842 | 0.142 | 0.095 | 0.0882 | 0.096 | 0.109 | 0.0821 | 0.0838 | 0.102
2 | NCI-H460 | 0.089 | 0.0117 | 0.011 | 0.0113 | 0.264 | 0.0398 | 0.0429 | 0.0452 | 0.031 | 0.015 | 0.0141 | 0.0129 | 0.0704 | 0.0127 | 0.0174 | 0.0151 | 0.0986 | 0.0124 | 0.0166 | 0.0082
3 | NCI-H520 | 0.509 | 0.115 | 0.104 | 0.141 | 0.25 | 0.169 | 0.0942 | 0.165 | 0.239 | 0.231 | 0.222 | 0.217 | 0.232 | 0.142 | 0.134 | 0.126 | 0.506 | 0.104 | 0.0836 | 0.104
4 | NCI-H647 | 0.31 | 0.0588 | 0.0482 | 0.0727 | 0.493 | 0.0803 | 0.0566 | 0.0473 | 0.133 | 0.0786 | 0.049 | 0.0752 | 0.18 | 0.111 | 0.0539 | 0.0401 | 0.379 | 0.192 | 0.0855 | 0.0533
5 | NCI-H650 | 0.566 | 0.171 | 0.0978 | 0.146 | 0.872 | 0.218 | 0.135 | 0.134 | 0.54 | 0.185 | 0.112 | 0.0731 | 0.374 | 0.171 | 0.128 | 0.101 | 0.964 | 0.189 | 0.122 | 0.13
6 | NCI-H661 | 0.41 | 0.183 | 0.181 | 0.191 | 0.346 | 0.181 | 0.175 | 0.177 | 0.906 | 0.195 | 0.169 | 0.148 | 0.431 | 0.188 | 0.14 | 0.153 | 0.512 | 0.162 | 0.17 | 0.161
7 | NCI-H727 | 0.644 | 0.238 | 0.222 | 0.228 | 0.297 | 0.173 | 0.196 | 0.134 | 0.404 | 0.253 | 0.301 | 0.282 | 0.633 | 0.38 | 0.361 | 0.383 | 0.39 | 0.324 | 0.324 | 0.392
8 | NCI-H838 | 0.239 | 0.106 | 0.0848 | 0.109 | 0.28 | 0.117 | 0.111 | 0.101 | 0.295 | 0.134 | 0.104 | 0.0905 | 0.224 | 0.143 | 0.0896 | 0.0812 | 0.315 | 0.127 | 0.0741 | 0.0706
9 | NCI-H1355 | 0.979 | 0.681 | 0.142 | 0.138 | 0.476 | 0.146 | 0.0972 | 0.133 | 0.703 | 0.246 | 0.135 | 0.195 | 0.425 | 0.311 | 0.154 | 0.137 | 0.457 | 0.349 | 0.173 | 0.14
10 | NCI-H1395 | 0.506 | 0.314 | 0.292 | 0.276 | 0.483 | 0.248 | 0.269 | 0.248 | 0.631 | 0.31 | 0.244 | 0.238 | 0.596 | 0.311 | 0.248 | 0.248 | 1.11 | 0.315 | 0.281 | 0.289
11 | NCI-H1437 | 0.637 | 0.115 | 0.0859 | 0.0933 | 0.378 | 0.0843 | 0.0843 | 0.0936 | 1.1 | 0.354 | 0.152 | 0.136 | 0.245 | 0.203 | 0.117 | 0.119 | 0.403 | 0.212 | 0.134 | 0.135
12 | NCI-H1650 | 0.648 | 0.15 | 0.169 | 0.143 | 0.536 | 0.146 | 0.101 | 0.112 | 0.226 | 0.204 | 0.158 | 0.172 | 0.343 | 0.0912 | 0.115 | 0.0963 | 0.516 | 0.163 | 0.151 | 0.119
13 | NCI-H1651 | 0.685 | 0.142 | 0.0637 | 0.0602 | 0.507 | 0.115 | 0.0517 | 0.0439 | 0.695 | 0.554 | 0.0648 | 0.0578 | 0.519 | 0.383 | 0.148 | 0.0571 | 0.785 | 0.668 | 0.173 | 0.072
14 | NCI-H1666 | 0.319 | 0.19 | 0.182 | 0.212 | 0.4 | 0.19 | 0.21 | 0.226 | 1.07 | 0.361 | 0.357 | 0.305 | 0.672 | 0.442 | 0.6 | 0.541 | 0.731 | 0.431 | 0.57 | 0.49
15 | NCI-H1734 | 0.72 | 0.158 | 0.134 | 0.143 | 0.396 | 0.188 | 0.124 | 0.128 | 0.165 | 0.129 | 0.119 | 0.0997 | 0.26 | 0.135 | 0.122 | 0.126 | 0.595 | 0.278 | 0.146 | 0.136

Reference: the supplement of paper PMC10307832
